Results on 14 molecules are retold here after patent US8796268B2, “Heteroaryls and uses thereof” (Millennium Pharmaceuticals, Inc., priority 2010, dated 2014).

Holding throughout (format): biochemical
One assay deals with T1, Human PI3K alpha (Homo sapiens, UniProt P42336).
T1 construct: His (N); host or cells: SF9 insect cells (baculovirus)
The assay can be described thus: Human PI3K alpha enzyme assay (HTRF). To be noted: concentration not given, b1387 states 1.1 μM for PI3K α and β; for inhibition at 1.1 µM: read-out: p110 alpha Percent Inhibition.

The target of a further assay is T2, Human PI3K beta (Homo sapiens, UniProt P42338).
T2 construct: His (N); host or cells: SF9 insect cells (baculovirus)
The assay is described as follows: Human PI3K beta enzyme assay (HTRF). To be noted: concentration not given; b1387 states 1.1 μM for PI3K α and β; read-out: p110 beta Percent Inhibition. An outline of the steps: (§1)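 Compounds were mixed with 25 uM ATP, then with 3.5 uM di-C8 PI(4,5)P2 and His-tagged PI3K isoform (β 5.25 nM, δ 0.75 nM, γ 5 nM) at pH 7.00. After 30 min at room temperature, EDTA stopped the reaction and PIP3 was measured by HTRF over 1 h.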
For orientation: Time-resolved FRET reads energy transfer from a long-lived donor to a nearby acceptor.

Another assay deals with T3, Human PI3K gamma (Homo sapiens, UniProt P48736).
T3 construct: His (N); host or cells: SF9 insect cells (baculovirus)
The assay can be described thus: Human PI3K gamma enzyme assay (HTRF). To be noted: concentration not given, b1389 states 1.0 μM for PI3K δ and γ; for inhibition at 1 µM: read-out: p110 gamma Percent Inhibition. Summed up: as §1

The target in a further assay is T4, Human PI3K delta (Homo sapiens, UniProt O00329).
T4 construct: His (N); host or cells: SF9 insect cells (baculovirus)
The assay is described as follows: Human PI3K delta enzyme assay (HTRF). To be noted: concentration not given, b1389 states 1.0 μM for PI3K δ and γ; for inhibition at 1 µM: read-out: p110 delta Percent Inhibition. Summed up: as §1

T1 sequence (P42336 whole entry): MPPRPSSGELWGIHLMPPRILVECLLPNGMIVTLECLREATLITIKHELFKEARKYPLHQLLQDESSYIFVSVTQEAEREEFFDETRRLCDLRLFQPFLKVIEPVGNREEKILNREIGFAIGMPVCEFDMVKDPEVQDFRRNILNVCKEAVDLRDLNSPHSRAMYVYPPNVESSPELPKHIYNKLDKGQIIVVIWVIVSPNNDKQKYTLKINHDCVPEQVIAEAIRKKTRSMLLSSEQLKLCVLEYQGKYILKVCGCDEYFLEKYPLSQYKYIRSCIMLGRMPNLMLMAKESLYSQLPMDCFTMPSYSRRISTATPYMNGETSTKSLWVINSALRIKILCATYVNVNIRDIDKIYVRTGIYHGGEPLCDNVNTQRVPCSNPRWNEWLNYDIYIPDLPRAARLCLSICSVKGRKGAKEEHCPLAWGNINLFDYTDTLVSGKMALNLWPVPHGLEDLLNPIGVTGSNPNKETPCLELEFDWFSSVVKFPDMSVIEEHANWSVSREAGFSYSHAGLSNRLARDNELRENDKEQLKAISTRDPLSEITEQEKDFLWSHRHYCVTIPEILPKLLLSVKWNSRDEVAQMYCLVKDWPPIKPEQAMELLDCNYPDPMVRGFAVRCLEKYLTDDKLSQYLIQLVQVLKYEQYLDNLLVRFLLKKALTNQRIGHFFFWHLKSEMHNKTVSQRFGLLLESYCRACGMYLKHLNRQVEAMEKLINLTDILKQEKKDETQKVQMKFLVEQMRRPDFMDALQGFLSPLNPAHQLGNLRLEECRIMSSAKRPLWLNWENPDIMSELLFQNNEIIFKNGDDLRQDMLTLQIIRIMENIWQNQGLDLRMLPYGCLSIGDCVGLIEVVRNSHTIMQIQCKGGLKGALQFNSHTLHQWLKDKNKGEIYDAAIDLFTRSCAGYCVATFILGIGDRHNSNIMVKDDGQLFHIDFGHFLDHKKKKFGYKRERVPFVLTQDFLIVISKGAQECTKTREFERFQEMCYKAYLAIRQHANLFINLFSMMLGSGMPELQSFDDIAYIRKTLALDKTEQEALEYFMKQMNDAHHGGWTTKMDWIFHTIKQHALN
T1 sequence (P27986 whole entry partner): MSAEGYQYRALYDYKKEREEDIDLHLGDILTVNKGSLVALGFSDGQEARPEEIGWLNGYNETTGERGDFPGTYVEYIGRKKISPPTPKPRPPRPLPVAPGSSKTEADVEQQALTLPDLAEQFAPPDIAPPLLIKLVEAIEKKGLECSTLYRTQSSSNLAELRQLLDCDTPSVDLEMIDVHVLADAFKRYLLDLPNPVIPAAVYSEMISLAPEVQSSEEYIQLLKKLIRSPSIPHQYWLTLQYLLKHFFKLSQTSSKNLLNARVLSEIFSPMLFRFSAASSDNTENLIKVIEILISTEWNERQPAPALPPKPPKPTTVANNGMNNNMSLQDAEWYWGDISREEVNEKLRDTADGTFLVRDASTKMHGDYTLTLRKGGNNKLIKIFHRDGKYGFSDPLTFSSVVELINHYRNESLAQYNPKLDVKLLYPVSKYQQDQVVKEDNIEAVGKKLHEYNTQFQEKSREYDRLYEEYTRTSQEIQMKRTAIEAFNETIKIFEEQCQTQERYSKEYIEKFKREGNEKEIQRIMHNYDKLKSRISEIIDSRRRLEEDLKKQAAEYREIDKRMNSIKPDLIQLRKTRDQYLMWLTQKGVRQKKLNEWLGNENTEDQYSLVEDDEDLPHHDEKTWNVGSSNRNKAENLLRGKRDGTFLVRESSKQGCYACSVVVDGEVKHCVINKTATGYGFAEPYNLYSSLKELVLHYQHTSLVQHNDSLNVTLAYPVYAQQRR
T4 sequence (O00329 whole entry): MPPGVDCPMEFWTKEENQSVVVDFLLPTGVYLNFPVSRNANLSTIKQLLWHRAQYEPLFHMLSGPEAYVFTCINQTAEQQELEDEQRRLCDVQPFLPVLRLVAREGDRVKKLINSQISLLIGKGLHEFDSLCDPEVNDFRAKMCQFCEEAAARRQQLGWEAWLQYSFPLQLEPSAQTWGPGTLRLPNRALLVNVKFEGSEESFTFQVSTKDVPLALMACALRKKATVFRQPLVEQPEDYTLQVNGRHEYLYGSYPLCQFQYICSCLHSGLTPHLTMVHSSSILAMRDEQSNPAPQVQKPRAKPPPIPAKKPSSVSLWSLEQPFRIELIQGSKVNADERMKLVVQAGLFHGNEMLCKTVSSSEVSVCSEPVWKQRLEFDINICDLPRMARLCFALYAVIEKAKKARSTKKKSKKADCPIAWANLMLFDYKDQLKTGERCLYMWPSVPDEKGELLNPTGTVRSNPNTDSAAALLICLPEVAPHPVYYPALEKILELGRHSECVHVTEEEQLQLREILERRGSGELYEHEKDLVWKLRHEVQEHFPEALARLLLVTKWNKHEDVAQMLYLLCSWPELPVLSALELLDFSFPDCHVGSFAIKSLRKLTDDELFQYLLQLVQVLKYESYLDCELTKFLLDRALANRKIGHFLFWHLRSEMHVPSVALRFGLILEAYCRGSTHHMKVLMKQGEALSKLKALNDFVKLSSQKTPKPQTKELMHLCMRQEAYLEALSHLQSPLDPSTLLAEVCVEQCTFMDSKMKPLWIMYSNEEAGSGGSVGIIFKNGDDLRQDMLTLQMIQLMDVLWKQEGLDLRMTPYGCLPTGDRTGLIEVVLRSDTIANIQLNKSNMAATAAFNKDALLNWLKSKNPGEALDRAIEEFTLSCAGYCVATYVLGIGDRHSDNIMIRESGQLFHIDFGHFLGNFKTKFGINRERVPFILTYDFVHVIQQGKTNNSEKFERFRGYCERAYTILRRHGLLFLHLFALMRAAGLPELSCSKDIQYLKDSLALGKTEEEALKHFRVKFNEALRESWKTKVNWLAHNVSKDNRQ
T4 sequence (P27986 whole entry partner): as the sequence (P27986 whole entry partner) above
T2 sequence (P42338 whole entry): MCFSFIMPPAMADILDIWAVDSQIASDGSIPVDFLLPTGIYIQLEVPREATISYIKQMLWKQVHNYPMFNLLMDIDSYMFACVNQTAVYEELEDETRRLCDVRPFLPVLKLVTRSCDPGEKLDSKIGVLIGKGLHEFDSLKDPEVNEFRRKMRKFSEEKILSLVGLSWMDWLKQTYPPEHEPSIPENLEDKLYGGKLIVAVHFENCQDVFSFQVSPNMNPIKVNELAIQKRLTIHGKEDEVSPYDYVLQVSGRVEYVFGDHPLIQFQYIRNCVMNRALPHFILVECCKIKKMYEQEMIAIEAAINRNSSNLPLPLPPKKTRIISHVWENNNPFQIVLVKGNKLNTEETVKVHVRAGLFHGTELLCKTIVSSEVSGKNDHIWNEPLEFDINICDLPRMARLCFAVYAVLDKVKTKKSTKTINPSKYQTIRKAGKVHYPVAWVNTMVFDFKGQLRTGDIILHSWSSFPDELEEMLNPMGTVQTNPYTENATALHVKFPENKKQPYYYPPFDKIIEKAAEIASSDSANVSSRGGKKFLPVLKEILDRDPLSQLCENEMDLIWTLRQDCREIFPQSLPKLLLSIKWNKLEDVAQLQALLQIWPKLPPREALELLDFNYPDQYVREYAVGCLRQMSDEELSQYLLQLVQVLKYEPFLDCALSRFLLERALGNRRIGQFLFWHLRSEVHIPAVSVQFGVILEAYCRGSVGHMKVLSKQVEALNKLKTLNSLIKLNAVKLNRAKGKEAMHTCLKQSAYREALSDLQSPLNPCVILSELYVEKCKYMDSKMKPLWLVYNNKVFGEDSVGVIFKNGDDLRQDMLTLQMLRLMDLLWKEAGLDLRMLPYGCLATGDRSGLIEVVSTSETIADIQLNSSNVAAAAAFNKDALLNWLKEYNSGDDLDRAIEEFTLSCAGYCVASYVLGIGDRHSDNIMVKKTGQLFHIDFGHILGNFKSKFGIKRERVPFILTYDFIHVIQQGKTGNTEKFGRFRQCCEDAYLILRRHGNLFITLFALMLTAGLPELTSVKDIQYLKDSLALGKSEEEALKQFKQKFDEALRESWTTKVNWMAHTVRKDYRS
T2 sequence (P27986 whole entry partner): as the sequence (P27986 whole entry partner) above
T3 sequence (P48736 whole entry): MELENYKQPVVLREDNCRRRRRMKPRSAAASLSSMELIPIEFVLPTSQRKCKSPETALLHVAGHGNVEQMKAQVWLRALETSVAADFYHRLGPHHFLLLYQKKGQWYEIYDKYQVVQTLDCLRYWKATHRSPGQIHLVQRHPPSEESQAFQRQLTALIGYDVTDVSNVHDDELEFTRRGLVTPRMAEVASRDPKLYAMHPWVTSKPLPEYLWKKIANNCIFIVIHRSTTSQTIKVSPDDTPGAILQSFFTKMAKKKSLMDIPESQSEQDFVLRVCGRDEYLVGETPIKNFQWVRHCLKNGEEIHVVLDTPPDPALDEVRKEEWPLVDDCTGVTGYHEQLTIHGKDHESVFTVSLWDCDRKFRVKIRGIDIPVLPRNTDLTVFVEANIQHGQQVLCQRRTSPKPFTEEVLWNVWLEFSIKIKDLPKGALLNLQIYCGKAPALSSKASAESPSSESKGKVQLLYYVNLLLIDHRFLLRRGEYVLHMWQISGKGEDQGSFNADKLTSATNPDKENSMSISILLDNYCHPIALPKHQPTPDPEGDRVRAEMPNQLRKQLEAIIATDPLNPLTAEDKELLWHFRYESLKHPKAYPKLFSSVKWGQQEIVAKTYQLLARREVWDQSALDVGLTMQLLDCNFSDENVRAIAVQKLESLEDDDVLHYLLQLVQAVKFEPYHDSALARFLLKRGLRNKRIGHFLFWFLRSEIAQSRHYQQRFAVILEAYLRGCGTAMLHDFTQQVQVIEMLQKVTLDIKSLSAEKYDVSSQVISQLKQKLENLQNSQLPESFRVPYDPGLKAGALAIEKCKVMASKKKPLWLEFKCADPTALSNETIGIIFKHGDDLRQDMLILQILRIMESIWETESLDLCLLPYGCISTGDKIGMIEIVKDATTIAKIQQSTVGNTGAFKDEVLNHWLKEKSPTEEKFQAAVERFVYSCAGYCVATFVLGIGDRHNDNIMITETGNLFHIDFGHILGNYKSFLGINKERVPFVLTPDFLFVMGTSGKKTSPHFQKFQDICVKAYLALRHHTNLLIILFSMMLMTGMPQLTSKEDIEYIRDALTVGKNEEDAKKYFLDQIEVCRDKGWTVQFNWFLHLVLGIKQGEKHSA

On to `O=C(O)c1sc(N2CCOCC2)nc1Cc1ccc2ccncc2c1` [Compound 344], for which the inhibition at 1.1 µM stood at 24% at Human PI3K alpha and 103% on Human PI3K beta. Further, the inhibition at 1 µM on Human PI3K gamma was found to be 59%; on Human PI3K delta it was 102%.
Taken in the same sequence, the figures for `Clc1ccc(C(c2cc(-c3ccnc(Cl)c3)sc2-c2nnc[nH]2)N2CCC2)cc1` (centres unmarked) [Compound 251] were 14%, 96%, 12% and 44%.
The corresponding values for `COc1ccc(C(O)c2cc(-c3ccncc3)sc2-c2nnc[nH]2)c(C)c1` (centres unmarked) [Compound 158] are 18%, 94%, 20% and 69%.
The corresponding values for `COc1ccc(C(O)c2cc(-c3ccncc3)sc2-c2nnc[nH]2)cc1F` (centres unmarked) [Compound 130] are 21%, 73%, 22% and 62%.
With `CC(=O)Nc1cc(-c2cc(C(c3ccc(Cl)cc3)N3CC[C@H](CO)C3)c(-c3nnc[nH]3)s2)ccn1` (some centres unmarked) [Compound 269], the inhibition at 1.1 µM was 72% at Human PI3K alpha and 100% at Human PI3K beta. For the same molecule, the inhibition at 1 µM on Human PI3K gamma came to 15%; at Human PI3K delta, 101%.
On to `CC(c1ccc(Cl)c(Cl)c1)c1nc(N2CCOCC2)sc1C(=O)O` (centres unmarked) [Compound 332], for which the figures for the inhibition at 1.1 µM at Human PI3K alpha and on Human PI3K beta were 11% and 77%, respectively. Also, the inhibition at 1 µM at Human PI3K gamma came to 27%; on Human PI3K delta it was 91%.
Consider `Cc1ccc(C(O)c2cc(-c3ccncc3)sc2-c2nnc[nH]2)cc1C` (centres unmarked) [Compound 174], for which the results for the inhibition at 1.1 µM on Human PI3K alpha and at Human PI3K beta were 15% and 70%, respectively. In addition, the inhibition at 1 µM came to 8% at Human PI3K gamma and 59% at Human PI3K delta.
Take `N#Cc1c(N2CCOCC2)sc(C(=O)O)c1C(CCF)c1ccc2ccccc2c1` (centres unmarked) [Compound 322]: at Human PI3K alpha, the “p110 alpha Percent Inhibition” value was determined as 64%. In addition, the inhibition at 1.1 µM on Human PI3K beta was 104%. Further, the “p110 gamma Percent Inhibition” value at Human PI3K gamma stood at 28%. At Human PI3K delta, the “p110 delta Percent Inhibition” value came to 67%.
Consider `CS(=O)(=O)NC(=O)c1sc(N2CCOCC2)c(C#N)c1Cc1ccc(Cl)c(Cl)c1` [Compound 352, 4-cyano-3-(3,4-dichlorobenzyl)-N-(methylsulfonyl)-5-morpholinothiophene-2-carboxamide], for which the figures for the inhibition at 1.1 µM on Human PI3K alpha and on Human PI3K beta were 18% and 85%, respectively. The inhibition at 1 µM turned out to be 14% at Human PI3K gamma and 84% on Human PI3K delta.
Taken in the same sequence, the figures for `OC(c1cc(-c2ccncc2)sc1-c1nnc[nH]1)c1cccc(F)c1F` (centres unmarked) [Compound 235] were 65%, 101%, 17% and 66%.
The corresponding values for `Nc1cc(-c2cc(C(c3ccc(Cl)cc3)N3CCNCC3)c(-c3nnc[nH]3)s2)ccn1` (centres unmarked) [Compound 254] are 49%, 96%, 8% and 91%.
Regarding `COC(=O)Nc1cc(-c2sc(C(=O)O)c(Cc3ccc4ccccc4c3)c2C#N)ccn1` [Compound 180], the inhibition at 1.1 µM turned out to be 60% on Human PI3K alpha and 102% on Human PI3K beta. The inhibition at 1 µM was 21% at Human PI3K gamma and 102% on Human PI3K delta.
For `Cn1c(Cc2nc(N3CCOCC3)sc2C(=O)O)cc2ccccc21` [Compound 302], the inhibition at 1.1 µM at Human PI3K alpha came out at 21%; at Human PI3K beta it was 100%. Moreover, the inhibition at 1 µM at Human PI3K gamma turned out to be 15%; on Human PI3K delta, 97%.
On to `OC(c1cnc2ccccc2n1)c1cc(-c2ccncc2)sc1-c1nnc[nH]1` (centres unmarked) [Compound 263], for which the inhibition at 1.1 µM at Human PI3K alpha came out at 48%; at Human PI3K beta it was 105%. The inhibition at 1 µM at Human PI3K gamma worked out at 43%; on Human PI3K delta, 84%.
